Values quoted from earlier work as cited in patent EP1656939A1 (Pooger Properties Limited, priority 2004, dated 2006).

Legend:
[1] = tested on: chemically induced mammary tumors
[2] = tested on: Ehrlich-carcinoma- and sarcoma-180-bearing mice; conditions: photoperiod alternated between LD 14:10 and DL 10:14 every 3 days

## COc1ccc2[nH]cc(CCNC(C)=O)c2c1 [melatonin, N-acetyl-5-methoxytryptamine]
[1]; in vivo
  promotion of chemically induced mammary tumors: inhibits
[1]; rodents
  antitumor activity: significant antitumor activity
Endogenous melatonin, serum
  half-life of endogenous melatonin in the serum: 30 to 50 min
Single passage through the liver
  cleared in a single passage through the liver: Approximately 90%
[2]
  reduction of survival and acceleration of tumor growth: reversed
